Experiments:
[1] = test system: AML12 Cell Line; assay: Transfection of AML12 Cell Line with FLuc mRNA LNPs (ONE-Glo EX luciferase signal); format: cell-based; conditions: 200 ng Fluc mRNA-LNP, 24 hours; Table 4
How it was run: (§1)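 Firefly luciferase luminescence measured 24 h after transfection with 200 ng mRNA-LNP per well in Opti-MEM. Seeding: 5,000 cells/well for B16F10 and MC38.K, 20,000 for AML12. LNPs were pre-incubated 30 min with mouse serum; mRNA content determined by RiboGreen.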

[2] = test system: Liver; assay: Ex-vivo luminescence signal from liver after IV Fluc mRNA LNPs in CD1 mice (IVIS); conditions: tail vein 1.0 mg/kg Day 0 and Day 2, imaging 18 hours after second dose, Table 4
[3] = test system: B16F10 Cell Line; assay: Transfection of B16F10 Cell Line with FLuc mRNA LNPs (ONE-Glo EX luciferase signal); format: cell-based; conditions: 200 ng Fluc mRNA-LNP, 24 hours; Table 4
How it was run: as §1

[4] = test system: MC38.K Cell Line; assay: Transfection of MC38.K Cell Line with FLuc mRNA LNPs (ONE-Glo EX luciferase signal); format: cell-based; conditions: 200 ng Fluc mRNA-LNP, 24 hours; Table 4
How it was run: as §1

SMILES | Total Luciferin Signal (RLU) In Vitro - AML12 [1] [RLU] | Total Liver Tissue Luciferin Signal (Photons/s) Ex-vivo - CD1 [2] [Photons/s] | Total Luciferin Signal (RLU) In Vitro - B16F10 [3] [RLU] | Total Luciferin Signal (RLU) In Vitro - MC38.K [4] [RLU] | Total Liver Tissue Luciferin Signal (Photons/s) In Vitro - CD1 [2] [Photons/s]
CCCCCCCCC(CCCCCCCF)OC(=O)CCCCCCCN(CCO)CCCCCC(=O)OCCCCCCC(C)C (stereo not drawn) [Compound 26] | 1.95E+05 | 5.54E+09 | 1.73E+05 | 2.33E+05 | 
CCCCCCCCCC(=O)OCCCCCCCN(CCO)CCCCCCCOC(=O)C(CCCCCCCC)CCCCCCCF (stereo not drawn) [Compound 27] | 3.02E+05 | 5.60E+09 | 6.19E+04 | 2.37E+05 | 
CCCCCCCCC(CCCCCCCF)OC(=O)CCCCCCCN(CCO)CCCCCC(=O)OC(CCCCCCCC)CCCCCCCC (stereo not drawn) [Compound 29] | 8.52E+04 | 7.57E+09 | 8.63E+05 | 2.97E+05 | 
CCCCCCCCCOC(=O)CCCCCCCN(CCCO)CCCCCCCC(=O)OC(CCCCCCCC)CCCCCCCCF (stereo not drawn) [Compound 30] | 8.06E+05 | 1.53E+10 | 1.16E+05 | 4.65E+05 | 
CCCCCCCCCC(=O)OCCCCCCCN(CCO)CCCCCCCC(=O)OC(CCCCCCCC)CCCCCCCCF (stereo not drawn) [Compound 32] | 1.53E+05 | 3.13E+09 | 2.09E+05 | 4.43E+05 | 
CCCCCCCCCCCOC(=O)CCCCCN(CCO)CCCCCCCC(=O)OC(CCCCCCCC)CCCCCCCCF (stereo not drawn) [Compound 33] | 1.38E+05 | 2.93E+09 | 4.80E+05 | 1.07E+06 | 
CCCCCCCCCOC(=O)CCCCCN(CCO)CCCCCCCC(=O)OC(CCCCCCCC)CCCCCCCCF (stereo not drawn) [Compound 34] | 1.56E+05 | 1.89E+09 | 238754.8 | 4.19E+05 | 
CCCCCCCCC(CCCCCCCCF)OC(=O)CCCCCCCN(CCO)CCCCCC(=O)OC(CCCCCCCC)CCCCCCCC (stereo not drawn) [Compound 35] | 1.57E+05 | 1.51E+10 | 4.43E+05 | 4.52E+05 | 
CCCCCCCCCOC(=O)CCCCCCCN(CCO)CCCCCCC(C)C(=O)OC(CCCCCCCC)CCCCCCCC (stereo not drawn) [Compound 36] | 2.18E+05 | 6.41E+08 | 2.85E+05 | 2.32E+05 | 
CCCCCCCCCOC(=O)C(C)CCCCCCN(CCO)CCCCCCCC(=O)OC(CCCCCCCC)CCCCCCCC (stereo not drawn) [Compound 37] | 7.63E+05 | 6.65E+09 | 2.66E+06 | 1.00E+06 | 
CCCCCCCCCOC(=O)CCCCCCCN(CCCCCCC(C)C(=O)OC(CCCCCCCC)CCCCCCCC)CCOC(=O)CCCN(C)C (stereo not drawn) [Compound 38, heptadecan-9-yl 8-((2-((4-(dimethylamino)butanoyl)oxy)ethyl)(8-(nonyloxy)-8-oxooctyl)amino)-2-methyloctanoate] | 1.22E+06 | 5.28E+07 | 2.75E+06 | 2.06E+06 | 
[2H]C([2H])(O)C([2H])([2H])N(CCCCCCCC(=O)OCCCCCCCCC)CCCCCCCC(=O)OC(CCCCCCCC)CCCCCCCC [Compound 39, heptadecan-9-yl 8-((2-hydroxyethyl-1,1,2,2-d4)(8-(nonyloxy)-8-oxooctyl)amino)octanoate] | 6.92E+05 |  | 3.58E+05 | 8.82E+05 | 7.86E+06
[2H]C([2H])(OC(=O)CCCN(C)C)C([2H])([2H])N(CCCCCCCC(=O)OCCCCCCCCC)CCCCCCCC(=O)OC(CCCCCCCC)CCCCCCCC [Compound 40, heptadecan-9-yl 8-((2-((4-(dimethylamino)butanoyl)oxy)ethyl-1,1,2,2-d4)(8-(nonyloxy)-8-oxooctyl)amino)octanoate] | 4.13E+06 | 1.12E+08 | 3.61E+06 | 8.09E+06 | 
CCCCCCCCCCCCN(CCO)CCCCCC(=O)OCCCCCCCCCCC [Compound 42] | 2.36E+04 |  | 1.91E+04 | 5.65E+04 | 2.04E+06
CC(C)CCCCCCCCOC(=O)CCCCCCCN(CCO)CCCCCCCC(=O)OCCCCCCCCC(C)C [Compound 45] | 3.98E+05 | 4.18E+08 | 1.98E+06 | 1.09E+06 | 
CCCCCCCCC(CCCCCCCF)C(=O)OCCCCCCCN(CCO)CCCCCCCOC(=O)CCCCCCCC=C(C)C (stereo not drawn) [Compound 52, 7-((7-((2-(7-fluoroheptyl)decanoyl)oxy)heptyl)(2-hydroxyethyl)amino)heptyl 10-methylundec-9-enoate] | 2.59E+05 | 7.87E+09 | 2.53E+05 | 4.31E+05 | 
CCCCCCCCC(CCCCCCCF)OC(=O)CCCCCCCN(CCO)CCCCCC(=O)OC(CCCCCCCC)CCCCCC(C)C (stereo not drawn) [Compound 55, 1-fluorohexadecan-8-yl 8-((2-hydroxyethyl)(6-((2-methylhexadecan-8-yl)oxy)-6-oxohexyl)amino)octanoate] | 4.19E+05 | 1.93E+10 | 1.10E+06 | 1.80E+06 | 
CCCCCCCCCOC(=O)CCCCCCCN(CCCCCCCC(=O)OC(CCCCCCCC)CCCCCCCCF)CCN(C)C (stereo not drawn) [Compound 56, 1-fluoroheptadecan-9-yl 8-((2-(dimethylamino)ethyl)(8-(nonyloxy)-8-oxooctyl)amino)octanoate] | 6.63E+06 | 1.77E+09 | 1.54E+07 | 2.52E+07 | 
CCCCCCCCC(CCCCCCCCF)OC(=O)CCCCCCCN(CCO)CCCCCC(=O)OCCCCCCC(C)C (stereo not drawn) [Compound 57, 1-fluoroheptadecan-9-yl 8-((2-hydroxyethyl)(6-((7-methyloctyl)oxy)-6-oxohexyl)amino)octanoate] | 2.63E+06 | 1.05E+10 | 1.27E+06 | 1.42E+07 | 
CCCCCCCCC(CCCCCCCC)OC(=O)CCCCCCCN(CCO)CCCCCCC(C)C(=O)OCCCCCCCCC(C)C (stereo not drawn) [Compound 59, 9-methyldecyl 8-((8-(heptadecan-9-yloxy)-8-oxooctyl)(2-hydroxyethyl)amino)-2-methyloctanoate] | 8.24E+05 | 5.55E+09 | 6.17E+05 | 8.40E+06 | 
CCCCCCCCC(CCCCCCCCF)C(=O)OCCCCCCCN(CCO)CCCCCCCOC(=O)CCCCCCCCC(C)C (stereo not drawn) [Compound 60, 7-((7-((10-fluoro-2-octyldecanoyl)oxy)heptyl)(2-hydroxyethyl)amino)heptyl 10-methylundecanoate] | 8.00E+05 | 3.00E+09 | 3.17E+05 | 5.21E+06 | 
